Test results taken from patent US8217029B2, “Oxazolidinone antibiotics” (Actelion Pharmaceuticals Ltd, priority 2007, dated 2012).
≈ marks a conversion by molar mass, not a printed value.

Tested on: S aureus A798
Experiment: Minimal inhibitory concentration (MIC), microdilution method in cation-adjusted Mueller-Hinton Broth following NCCLS guidelines
Assay type: cell-based
Conditions: pH of test medium 7.2-7.3
In short: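 MICs (mg/l) came from NCCLS-guided microdilution, using cation-adjusted Mueller-Hinton medium adjusted to pH 7.2-7.3.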

Structure (SMILES)	MIC [µg/mL]
COc1ccc2nccc(N3CC(N(C)C[C@@H]4CN(c5ccc(C)c(C(F)(F)F)c5)C(=O)O4)C3)c2n1 [Example 135, (R)-5-({[1-(6-Methoxy-[1,5]naphthyridin-4-yl)-azetidin-3-yl]-methyl-amino}-methyl)-3-(4-methyl-3-trifluoromethyl-phenyl)-oxazolidin-2-one]	≤ 0.031
COc1ccc2nccc(N3CC(N(C)C[C@@H]4CN(c5ccc(F)c(Cl)c5)C(=O)O4)C3)c2n1 [Example 136, (R)-3-(3-Chloro-4-fluoro-phenyl)-5-({[1-(6-methoxy-[1,5]naphthyridin-4-yl)-azetidin-3-yl]-methyl-amino}-methyl)-oxazolidin-2-one]	0.25 (≈ 0.53 µM)
CCc1ccc(N2C[C@@H](CN(C)C3CN(c4ccnc5ccc(OC)nc45)C3)OC2=O)cc1 [Example 137, (R)-3-(4-Ethyl-phenyl)-5-({[1-(6-methoxy-[1,5]naphthyridin-4-yl)-azetidin-3-yl]-methyl-amino}-methyl)-oxazolidin-2-one]	≤ 0.031
COc1ccc2nccc(N3CC(N(C)C[C@@H]4CN(c5ccc(C)c(C)c5)C(=O)O4)C3)c2n1 [Example 138, (R)-3-(3,4-Dimethyl-phenyl)-5-({[1-(6-methoxy-[1,5]naphthyridin-4-yl)-azetidin-3-yl]-methyl-amino}-methyl)-oxazolidin-2-one]	≤ 0.031
CCCc1ccc(N2C[C@@H](CN(C)C3CN(c4ccnc5ccc(OC)nc45)C3)OC2=O)cc1 [Example 139, (R)-5-({[1-(6-Methoxy-[1,5]naphthyridin-4-yl)-azetidin-3-yl]-methyl-amino}-methyl)-3-(4-propyl-phenyl)-oxazolidin-2-one]	≤ 0.031
COc1ccc2nccc(N3CC(N(C)C[C@@H]4CN(c5cccc(N(C)C)c5)C(=O)O4)C3)c2n1 [Example 140, (R)-3-(3-Dimethylamino-phenyl)-5-({[1-(6-methoxy-[1,5]naphthyridin-4-yl)-azetidin-3-yl]-methyl-amino}-methyl)-oxazolidin-2-one]	0.25 (≈ 0.54 µM)
COc1ccc2nccc(N3CC(N(C)C[C@@H]4CN(c5ccc(Br)c(F)c5)C(=O)O4)C3)c2n1 [Example 141, (R)-3-(4-Bromo-3-fluoro-phenyl)-5-({[1-(6-methoxy-[1,5]naphthyridin-4-yl)-azetidin-3-yl]-methyl-amino}-methyl)-oxazolidin-2-one]	≤ 0.031
COc1ccc2nccc(N3CC(N(C)C[C@@H]4CN(c5ccc(C)c(Br)c5)C(=O)O4)C3)c2n1 [Example 142, (R)-3-(3-Bromo-4-methyl-phenyl)-5-({[1-(6-methoxy-[1,5]naphthyridin-4-yl)-azetidin-3-yl]-methyl-amino}-methyl)-oxazolidin-2-one]	≤ 0.031
COc1ccc2nccc(N3CC(N(C)C[C@@H]4CN(c5ccc(Br)c(C)c5)C(=O)O4)C3)c2n1 [Example 143, (R)-3-(4-Bromo-3-methyl-phenyl)-5-({[1-(6-methoxy-[1,5]naphthyridin-4-yl)-azetidin-3-yl]-methyl-amino}-methyl)-oxazolidin-2-one]	≤ 0.031
COc1ccc2nccc(N3CC(N(C)C[C@@H]4CN(c5ccc6ncsc6c5)C(=O)O4)C3)c2n1 [Example 144, (R)-3-Benzothiazol-6-yl-5-({[1-(6-methoxy-[1,5]naphthyridin-4-yl)-azetidin-3-yl]-methyl-amino}-methyl)-oxazolidin-2-one]	0.063 (≈ 0.132 µM)
COc1ccc2nccc(N3CC(N(C)C[C@@H]4CN(c5ccc6c(c5)OCO6)C(=O)O4)C3)c2n1 [Example 145, (R)-3-Benzo[1,3]dioxol-5-yl-5-({[1-(6-methoxy-[1,5]naphthyridin-4-yl)-azetidin-3-yl]-methyl-amino}-methyl)-oxazolidin-2-one]	0.125 (≈ 0.27 µM)
COc1ccc2nccc(N3CC(N(C)C[C@@H]4CN(c5ccc6scnc6c5)C(=O)O4)C3)c2n1 [Example 146, (R)-3-Benzothiazol-5-yl-5-({[1-(6-methoxy-[1,5]naphthyridin-4-yl)-azetidin-3-yl]-methyl-amino}-methyl)-oxazolidin-2-one]	0.063 (≈ 0.132 µM)
COc1ccc2nccc(N3CC(N(C)C[C@@H]4CN(c5cccc(F)c5)C(=O)O4)C3)c2n1 [Example 147, (R)-3-(3-Fluoro-phenyl)-5-({[1-(6-methoxy-[1,5]naphthyridin-4-yl)-azetidin-3-yl]-methyl-amino}-methyl)-oxazolidin-2-one]	0.25 (≈ 0.571 µM)
COc1ccc2nccc(N3CC(C(=O)NC[C@@H]4CN(c5ccc(C)c(F)c5)C(=O)O4)C3)c2n1 [Example 148, 1-(6-Methoxy-[1,5]naphthyridin-4-yl)-azetidine-3-carboxylic acid [(R)-3-(3-fluoro-4-methyl-phenyl)-2-oxo-oxazolidin-5-ylmethyl]-amide]	0.5 (≈ 1.07 µM)
COc1ccc2nccc(N3CC(N(C)C[C@@H]4CN(c5ccc6c(n5)NC(=O)CO6)C(=O)O4)C3)c2n1 [Example 150, 6-[(R)-5-({[1-(6-Methoxy-[1,5]naphthyridin-4-yl)-azetidin-3-yl]-methyl-amino}-methyl)-2-oxo-oxazolidin-3-yl]-4H-pyrido[3,2-b][1,4]oxazin-3-one]	≤ 0.031
COc1ccc2nccc(N3C[C@@H]4C[C@H]3CN4C[C@@H]3CN(c4ccc5c(c4)NC(=O)CO5)C(=O)O3)c2n1 [Example 151, 6-{(R)-5-[(1S,4S)-5-(6-Methoxy-[1,5]naphthyridin-4-yl)-2,5-diaza-bicyclo[2.2.1]hept-2-ylmethyl]-2-oxo-oxazolidin-3-yl}-4H-benzo[1,4]oxazin-3-one]	0.063 (≈ 0.125 µM)
COc1ccc2nccc(N3C[C@@H]4C[C@H]3CN4C[C@@H]3CN(c4ccc5c(c4)NC(=O)CS5)C(=O)O3)c2n1 [Example 152, 6-{(R)-5-[(1S,4S)-5-(6-Methoxy-[1,5]naphthyridin-4-yl)-2,5-diaza-bicyclo[2.2.1]hept-2-ylmethyl]-2-oxo-oxazolidin-3-yl}-4H-benzo[1,4]thiazin-3-one]	0.063 (≈ 0.121 µM)
COc1ccc2nccc(N3CC(N(C)C[C@@H]4CN(c5cc6c(nn5)OCCO6)C(=O)O4)C3)c2n1 [Example 153, (R)-3-(6,7-Dihydro-[1,4]dioxino[2,3-c]pyridazin-3-yl)-5-({[1-(6-methoxy-[1,5]naphthyridin-4-yl)-azetidin-3-yl]-methyl-amino}-methyl)-oxazolidin-2-one]	4 (≈ 8.34 µM)
COc1ccc2nccc(N3CC(CNC[C@@H]4CN(c5ccc(C)c(F)c5)C(=O)O4)C3)c2n1 [Example 154, (R)-3-(3-Fluoro-4-methyl-phenyl)-5-({[1-(6-methoxy-[1,5]naphthyridin-4-yl)-azetidin-3-ylmethyl]-amino}-methyl)-oxazolidin-2-one]	0.063 (≈ 0.14 µM)
COc1ccc2ncc(F)c(N3CC(NC[C@@H]4CN(c5cc6c(cc5F)SCC(=O)N6)C(=O)O4)C3)c2n1 [Example 155, 7-Fluoro-6-((R)-5-{[1-(3-fluoro-6-methoxy-[1,5]naphthyridin-4-yl)-azetidin-3-ylamino]-methyl}-2-oxo-oxazolidin-3-yl)-4H-benzo[1,4]thiazin-3-one]	≤ 0.031
COc1ccc2nccc(N3CC(NC[C@@H]4CN(c5ccc6c(c5)NC(=O)CO6)C(=O)O4)C3)c2c1 [Example 156, 6-((R)-5-{[1-(6-Methoxy-quinolin-4-yl)-azetidin-3-ylamino]-methyl}-2-oxo-oxazolidin-3-yl)-4H-benzo[1,4]oxazin-3-one]	≤ 0.031
COc1cnc2cccc(N3CC(NC[C@@H]4CN(c5ccc6c(c5)NC(=O)CS6)C(=O)O4)C3)c2c1 [Example 157, 6-((R)-5-{[1-(3-Methoxy-quinolin-5-yl)-azetidin-3-ylamino]-methyl}-2-oxo-oxazolidin-3-yl)-4H-benzo[1,4]thiazin-3-one]	≤ 0.031
COc1ccc2cccc(N3CC(NC[C@@H]4CN(c5ccc6c(c5)NC(=O)CS6)C(=O)O4)C3)c2n1 [Example 158, 6-((R)-5-{[1-(2-Methoxy-quinolin-8-yl)-azetidin-3-ylamino]-methyl}-2-oxo-oxazolidin-3-yl)-4H-benzo[1,4]thiazin-3-one]	≤ 0.031
COc1ccc2ccc(F)c(N3CC(NC[C@@H]4CN(c5ccc6c(c5)NC(=O)CS6)C(=O)O4)C3)c2n1 [Example 159, 6-((R)-5-{[1-(7-Fluoro-2-methoxy-quinolin-8-yl)-azetidin-3-ylamino]-methyl}-2-oxo-oxazolidin-3-yl)-4H-benzo[1,4]thiazin-3-one]	≤ 0.031
O=C1CSc2ccc(N3C[C@@H](CNC4CN(c5ccnc6ccc(F)cc56)C4)OC3=O)cc2N1 [Example 160, 6-((R)-5-{[1-(6-Fluoro-quinolin-4-yl)-azetidin-3-ylamino]-methyl}-2-oxo-oxazolidin-3-yl)-4H-benzo[1,4]thiazin-3-one]	≤ 0.031
N#Cc1ccc2nccc(N3CC(NC[C@@H]4CN(c5ccc6c(c5)NC(=O)CS6)C(=O)O4)C3)c2c1 [Example 161, 4-(3-{[(R)-2-oxo-3-(3-oxo-3,4-dihydro-2H-benzo[1,4]thiazin-6-yl)-oxazolidin-5-ylmethyl]amino}-azetidin-1-yl)-quinoline-6-carbonitrile]	≤ 0.031
COc1ccc2cccc(N3CC(CNC[C@@H]4CN(c5ccc6c(c5)NC(=O)CS6)C(=O)O4)C3)c2n1 [Example 162, 6-[(R)-5-({[1-(2-Methoxy-quinolin-8-yl)-azetidin-3-ylmethyl]-amino}-methyl)-2-oxo-oxazolidin-3-yl]-4H-benzo[1,4]thiazin-3-one]	≤ 0.031
COc1cnc2cccc(N3CC(CNC[C@@H]4CN(c5ccc6c(c5)NC(=O)CS6)C(=O)O4)C3)c2c1 [Example 163, 6-[(R)-5-({[1-(3-Methoxy-quinolin-5-yl)-azetidin-3-ylmethyl]-amino}-methyl)-2-oxo-oxazolidin-3-yl]-4H-benzo[1,4]thiazin-3-one]	≤ 0.031
COc1ccc2ncc(F)c(N3CC[C@H](NC[C@H]4CN(c5ccc6c(c5)NC(=O)CS6)C(=O)O4)C3)c2n1 [Example 164, 6-((S)-5-{[(S)-1-(3-Fluoro-6-methoxy-[1,5]naphthyridin-4-yl)-pyrrolidin-3-ylamino]methyl}-2-oxo-oxazolidin-3-yl)-4H-benzo[1,4]thiazin-3-one]	≤ 0.031
COc1ccc2nccc(N3CCC(NC[C@H]4CN(c5ccc6c(c5)NC(=O)CS6)C(=O)O4)CC3)c2n1 [Example 165, 6-((S)-5-{[1-(6-Methoxy-[1,5]naphthyridin-4-yl)-piperidin-4-ylamino]-methyl}-2-oxo-oxazolidin-3-yl)-4H-benzo[1,4]thiazin-3-one]	≤ 0.031
